Source: US5476850A, “Amino-substituted benzenesulfonylureas and -thioureas and their use as pharmaceuticals” (Hoechst Aktiengesellschaft, priority 1993, dated 1995)

Tests used:
[1] = tested on: papillary muscle of the guinea-pig; assay: Action potential duration on the papillary muscle of the guinea-pig (microelectrode technique; APD shortened by 2-deoxyglucose or rilmakalim); assay type: cell-based; conditions: test substance 2.2·10^-5 mol per liter, 30 minutes after addition, control <40 ms; for APD95 -rilmakalim: action potential reduced by 1 μM rilmakalim (Hoe 234); for APD95 -DEO: action potential reduced by 2-deoxyglucose (DEO)
Description: (1) Action potential duration on the papillary muscle of the guinea-pig:
ATP deficiency states, as are observed during ischemia in the cardiac muscle cell, lead to a reduction of the action potential duration. They count as one of the causes of so-called reentry arrhythmias, which can cause sudden heart death. The opening of ATP-sensitive K channels by the reduction of ATP counts as causal here.
To measure the action potential, a standard microelectrode technique is employed. For this, guinea-pigs of both sexes are killed by a blow to the head, the hearts are removed, and the papillary muscles are separated out and suspended in an organ bath. The organ bath is irrigated with Ringer solution (0.9% NaCl, 0.048% KCl, 0,024% CaCl2, 0.02% NaHCO3 and 0.1% glucose) and aerated with a mixture of 95% oxygen and 5% carbon dioxide at a temperature of 36° C. The muscle is stimulated by means of an electrode using square-wave impulses of 1 V and 1 ms duration and a frequency of 2 Hz. The action potential is derived and recorded by means of a glass microelectrode inserted intracellularly, which is filled with […] KCl solution. The substances to be tested were added to the Ringer solution in a concentration of 2.2·10^-5 mol per liter. The action potential is shown amplified on an oscilloscope using an amplifier from Hugo Sachs. The duration of the action potential is determined at a degree of repolarization of 95% (APD95). Action potential reductions are produced either by addition of a 1 μM solution of the potassium channel opener rilmakalim (Hoe 234) [W. Linz, E. Klaus, U. Albus, R. H. A. Becker, D. Mania, H. C. Englert, B. A. Schokens, Arzneimittelforschung/Drug Research, Volume 42 (II), 1992, pp. 1180 to 1185] or by addition of 2-deoxyglucose (DEO). In experimental physiology, ATP deficiency states are produced by 2-deoxyglucose by blockade of glucose metabolism. The action potential-reducing effect of these substances was prevented or reduced by the simultaneous addition of the test substances. Test substances were added to the bath solution as stock solutions in propanediol. The values indicated relate to measurements 30 minutes after addition. The APD95 in the presence of […] or rilmakalim and in the absence of the test substance counts as the control.

RINm5F cells = assay: Membrane potential on isolated β-cells (whole cell patch clamp, RINm5F cells); assay type: cell-based; conditions: compound 10^-6 mol per liter; diazoxide 100 μmol in bath; 34°±1° C.; blank cell potential -76
Description: (2) Membrane potential on isolated β-cells:
The mechanism of action of the hypoglycemic sulfonylureas is elucidated in rough terms. The target organ is the β-cells of the pancreas where increased secretion of the hypoglycemic hormone insulin occurs. The release of insulin is controlled by means of the cell membrane potential. Glibenclamide causes a depolarization of the cell membrane, which promotes insulin release via an increased influx of calcium ions. The extent of this depolarization of the cell membrane ΔU was determined on RINm5F cells, a pancreas tumor cell line, for a few of the compounds according to the invention. The potency of a compound in this model predicts the extent of the hypoglycemic potential of this compound.
RINm5F cells were cultured at 37° C. in RPMI 1640 culture medium (Flow), to which 11 mmol of glucose, 10% (vol/vol) fetal calf-serum, 2 mmol of glutamine and 50 μg/ml of gentamycin were added. […]
Isolated RINm5F cells were transferred to a Plexiglas chamber on an inverted microscope which is equipped with a differential interference contrast optical system. […] In this whole cell configuration, the cell potential was recorded with the aid of a patch clamp amplifier (L/M EPC 7) and measured by applying a voltage ramp to the whole cell current. […]

| SMILES | APD95 -rilmakalim [1] [ms] | APD95 -DEO [1] [ms] | ΔU (depolarization of the cell membrane) (RINm5F cells) [mv] |
| --- | --- | --- | --- |
| CNC(=S)NS(=O)(=O)c1cc(CCNC(=O)c2cc(Cl)ccc2OC)ccc1N1CCOCC1 [Example 1, 2-Methoxy-5-chloro-N-{5-[1-sulfonylamino-N-(methylaminothiocarbonyl)-2-(4-morpholino)phenyl]ethyl}benzamide] | 121 ± 14 | 110 | 14 |
| CNC(=S)NS(=O)(=O)c1cc(CCNC(=O)c2cc(Cl)ccc2OC)ccc1N1CCCCC1 [Example 2, 2-Methoxy-5-chloro-N-{5-[1-sulfonylamino-N-(methylaminothiocarbonyl)-2-(1-piperidyl)phenyl]ethyl}benzamide] | 153 ± 15 | 105 ± 11 | 19 |
